Structures can show the parent of a compound that is named as a salt. Where two headings read alike, the source gives them in different places.
Experiments:
5-HT2A receptors = biological target: T1, 5-HT2A receptors (Rattus norvegicus, UniProt P14842); assay: Inhibition of the binding of [3H]Ketanserin to 5-HT2A receptors; conditions: for 5-HT2A-binding (% inhibition): at 100 nM; for inhibition at 0.1 µM: read-out: 5-HT2A-binding (% inhibition)
T1 construct: membranes from rat brain (cortex) in vitro; from tissue; host or cells: rat brain cortex membranes
Method: Inhibition of the Binding of [^3H]Ketanserin to 5-HT2A Receptors
The compounds were tested with respect to their affinity for 5-HT2A receptors by determining their ability to inhibit the binding of [^3H]Ketanserin (0.50 nM) to membranes from rat brain (cortex) in vitro. Method described in Sanchez et al. Drug Dev. Res. 1991, 22, 239-250.

[1] = biological target: T2, human cloned dopamine D4.2 receptors (Homo sapiens, UniProt P21917, DEL265-296); assay: Inhibition of the binding of [3H]YM-09151-2 to human dopamine D4.2 receptors; conditions: [3H]YM-09151-2 0.06 nM, membranes of CHO-cells; for D4-binding (% inhibition): at 50 nM
T2 construct: expressed in transfected cells; host or cells: CHO cells
T2 sequence (P21917 with tags, fused parts or gaps DEL265-296): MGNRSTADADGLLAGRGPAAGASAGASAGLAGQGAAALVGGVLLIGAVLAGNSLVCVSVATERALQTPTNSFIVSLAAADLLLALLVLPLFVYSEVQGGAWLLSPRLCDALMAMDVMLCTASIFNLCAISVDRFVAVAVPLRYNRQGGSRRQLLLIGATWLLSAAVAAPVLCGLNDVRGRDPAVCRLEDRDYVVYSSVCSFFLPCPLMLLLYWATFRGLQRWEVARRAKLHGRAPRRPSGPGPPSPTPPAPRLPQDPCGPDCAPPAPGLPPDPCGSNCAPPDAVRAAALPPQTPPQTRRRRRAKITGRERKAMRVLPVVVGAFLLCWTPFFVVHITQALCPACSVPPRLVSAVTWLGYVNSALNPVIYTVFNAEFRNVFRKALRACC
Method: Inhibition of the Binding of [^3H]YM-09151-2 to Human Dopamine D4.2 Receptors
By this method, the inhibition by drugs of the binding of [^3H]YM-09151-2 (0.06 nM) to membranes of human cloned dopamine D4.2 receptors expressed in CHO-cells is determined in vitro. Method modified from NEN Life Science Products, Inc., technical data certificate PC2533-10/96.

dopamine D4 receptors = biological target: T3, dopamine D4 receptors (Homo sapiens, UniProt P21917); conditions: various in vitro efficacy assays, Gazi et al.; cited from earlier work
T3 sequence (P21917 1-419): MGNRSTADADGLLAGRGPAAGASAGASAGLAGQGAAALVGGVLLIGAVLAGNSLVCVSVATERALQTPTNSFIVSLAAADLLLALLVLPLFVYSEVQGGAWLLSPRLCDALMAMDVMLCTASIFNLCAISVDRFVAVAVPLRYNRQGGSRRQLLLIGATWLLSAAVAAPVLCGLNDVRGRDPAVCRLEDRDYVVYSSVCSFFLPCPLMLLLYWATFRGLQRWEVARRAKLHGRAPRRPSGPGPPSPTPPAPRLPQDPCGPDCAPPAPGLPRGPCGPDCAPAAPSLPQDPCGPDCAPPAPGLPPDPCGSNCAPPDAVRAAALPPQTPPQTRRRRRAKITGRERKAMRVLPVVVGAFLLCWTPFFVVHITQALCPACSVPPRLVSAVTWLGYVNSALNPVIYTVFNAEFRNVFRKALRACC

[2] = [3H]Ketanserin 0.50 nM, membranes from rat brain (cortex), read-out: 5-HT2A-binding (IC50)
[3] = [3H]Ketanserin 0.50 nM, membranes from rat brain (cortex)

T1 sequence (P14842 whole entry): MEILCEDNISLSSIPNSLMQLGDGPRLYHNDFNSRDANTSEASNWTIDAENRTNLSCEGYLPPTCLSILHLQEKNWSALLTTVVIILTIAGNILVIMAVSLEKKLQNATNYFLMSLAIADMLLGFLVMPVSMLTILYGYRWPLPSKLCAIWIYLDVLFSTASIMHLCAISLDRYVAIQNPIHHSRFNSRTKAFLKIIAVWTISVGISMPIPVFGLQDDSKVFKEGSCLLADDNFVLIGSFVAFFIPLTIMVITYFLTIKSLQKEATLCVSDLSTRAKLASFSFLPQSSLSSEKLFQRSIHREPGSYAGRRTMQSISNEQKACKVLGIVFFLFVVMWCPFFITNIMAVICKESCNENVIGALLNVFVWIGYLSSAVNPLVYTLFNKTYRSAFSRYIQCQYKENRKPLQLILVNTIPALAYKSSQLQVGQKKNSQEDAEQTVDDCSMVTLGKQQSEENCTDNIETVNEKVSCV

| Structure (SMILES) | IC50 (5-HT2A receptors; [2]) [nM] | IC50 [1] [nM] | D4-binding (% inhibition) [1] [% at 50 nM] | further results |
| --- | --- | --- | --- | --- |
| O=C1CCc2ccccc2N1CCCCN1CCN(c2ccc3[nH]ccc3c2)CC1 (as salt: hydrochloride) [Compound 2b, 5-{4-[4-(2-Oxo-3,4-dihydro-2H-quinolin-1-yl)butan-1-yl]piperazin-1-yl}-1H-indole] |  |  |  | melting point: 233 to 236 °C |
| O=C1CCc2ccccc2N1CCCN1CCN(c2ccc3[nH]ccc3c2)CC1 [Compound 2a, 5-{4-[3-(2-Oxo-3,4-dihydro-2H-quinolin-1-yl)propan-1-yl]piperazin-1-yl}-1H-indole] | 13 | 3.2 |  |  |
| O=C1COc2ccccc2N1CCCCN1CCN(c2ccc3[nH]ccc3c2)CC1 [Compound 3a, 5-{4-[4-(3-Oxo-3,4-dihydro-2H-1,4-benzoxazin-4-yl)butan-1-yl]piperazin-4-yl}-1H-indole] |  |  | 56 | 5-HT2A-binding (% inhibition) (5-HT2A receptors; [3]): 89% at 100 nM |
| O=C1CCc2ccccc2N1CCCN1CC=C(c2ccc3[nH]ccc3c2)CC1 [Compound 2e, 5-{1-[3-(2-Oxo-3,4-dihydro-2H-quinolin-1-yl)propan-1-yl]-3,6-dihydro-2H-pyridin-4-yl}-1H-indole] |  | 0.97 |  | IC50 (5-HT2A receptors): 6.6 nM |
| O=C(CCN1CCN(c2ccc3[nH]ccc3c2)CC1)N1CCc2ccccc2C1 [Compound 5a, 5-{4-[3-(3,4-Dihydro-1H-isoquinolin-2-yl)-3-oxopropan-1-yl]piperazin-1-yl}-1H-indole] |  |  | 73 | inhibition at 0.1 µM (5-HT2A receptors): 29% |
| O=C1CCc2ccccc2N1CCCCN1CCN(c2ccc3[nH]ccc3c2)CC1 [Compound 2b, 5-{4-[4-(2-Oxo-3,4-dihydro-2H-quinolin-1-yl)butan-1-yl]piperazin-1-yl}-1H-indole] | 17 | 18 |  |  |
| O=C1CCc2ccccc2N1CCCCN1CCN(c2ccc3cc[nH]c3c2)CC1 [Compound 2d, 6-{4-[4-(2-Oxo-3,4-dihydro-2H-quinolin-1-yl)butan-1-yl]piperazin-1-yl}-1H-indole] |  |  | 58 | inhibition at 0.1 µM (5-HT2A receptors): 46% |
| c1ccc2c(c1)CCCN2CCCN1CCN(c2ccc3[nH]ccc3c2)CC1 [Compound 4a, 5-{4-[3-(3,4-Dihydro-2H-quinolin-1-yl)propan-1-yl]piperazin-1-yl}-1H-indole] | 27 | 2.6 |  |  |
| O=C(CCCN1CCN(c2ccc3[nH]ccc3c2)CC1)N1CCc2ccccc2C1 [Compound 5b, 5-{4-[4-(3,4-Dihydro-1H-isoquinolin-2-yl)-4-oxobutan-1-yl]piperazin-1-yl}-1H-indole] | 4 |  | 81 | melting point: 122 to 125 °C |
| O=C1c2ccccc2CCN1CCCN1CCN(c2ccc3[nH]ccc3c2)CC1 [Compound 3b] | 90 |  | 78 |  |
| O=C1CCc2ccccc2N1CCCN1CCN(c2ccc3cc[nH]c3c2)CC1 [Compound 2c] | 32 |  | 94 |  |
| O=C1CCc2ccccc2N1CCN1CCN(c2ccc3[nH]ccc3c2)CC1 [Compound 1, 5-{4-[2-(2-Oxo-3,4-dihydro-2H-quinolin-1-yl)ethyl]piperazin-1-yl}-1H-indole] | 29 |  | 90 |  |
| c1ccc2c(c1)CCCN2CCCN1CCN(c2ccc3[nH]ccc3c2)CC1 [Compound 4b, 5-{4-[3-(3,4-Dihydro-2H-quinolin-1-yl)propan-1-yl]piperazin-1-yl}-1H-indole] | 19 | 8.8 |  |  |
| O=C1CCc2ccccc2N1CCCN1CCC(c2ccc3[nH]ccc3c2)CC1 [Compound 2f, 5-{1-[3-(2-Oxo-3,4-dihydro-2H-quinolin-1-yl)propan-1-yl]piperidin-4-yl}-1H-indole] | 22 | 1.6 |  |  |
| CC(C)Oc1cccnc1N(C)C1CCN(Cc2ccccc2)CC1 [Compound U-101958] |  |  |  | Functional activity at D4 receptor (literature) (dopamine D4 receptors): partial D4 receptor agonists |
| O=C1c2ccccc2CCN1CCCCN1CCN(c2ccc3[nH]ccc3c2)CC1 [Compound 3c] |  |  | 56 | 5-HT2A-binding (% inhibition) (5-HT2A receptors; [3]): 93% at 100 nM |

From patent US20030232822A1, “Indole derivatives useful for the treatment of CNS disorders” (H. Lundbeck A/S, priority 2000, published 2003)
